# Data as given in patent US20130189185A1, “Boron-Based Dual Imaging Probes, Compositions and Methods for Rapid Aqueous F-18 Labeling, and Imaging Methods Using Same” (UNIVERSITY OF SOUTHERN CALIFORNIA, priority 2011, published 2013).
# Key:
# [1] = In vivo microPET imaging of normal nude mice; settings: judged from imaging results
# Experimental: The stability of the resulting ^18F—B compound is critical as free [^18F]-fluoride ions could bind to the bones giving rise to unwanted and interfering background signals.^14 The stability of compound [^18F]-[2-F]^+ was first studied in PBS buffer at pH 7.5 over a period of several hours. […] In order to validate the approach for in vivo PET imaging, [^18F]-[2-F]^+ (prepared via the aqueous route) was injected into normal nude mice that were imaged using a microPET scanner 1 h, 2 h, and 4 h post injection. […] Thus, although probe compound [^18F]-[2-F]^+ lacks any specific targeting functionalities, its accumulation in these organs constitutes a normal phenomenon, in line with its hydrophobic and cationic nature.
# (§1) Obvious bone uptake even at 3 h post injection was not observed, which is consistent with the reported high stability of BODIPY dyes. Next, the dual modality potential of the probe was confirmed. The animal was euthanized and liver, kidneys and muscle were harvested for ex vivo PET/fluorescence imaging. […] We also sectioned the kidney and observed the BODIPY fluorescent signal under microscope.
# The nude mice were imaged using a microPET R4 rodent model scanner (Concorde Microsystems, Knoxyille, Tenn.) in the prone position. The mice were injected with 50-80 μCi of [^18F]-[2-F]^+ via the tail vein. […]
# [2] = Ex vivo fluorescence and microPET imaging of dissected organs; format: in vivo, nude mouse; settings: organs harvested after microPET scan 4 h post injection
# Description: The dual modality operation of the probe was confirmed. To this end, the animal was euthanized and selected organs harvested for ex vivo fluorescence and microPET imaging (FIG. 4). The fluorescence images were obtained by irradiation of the organs at λ=500 nm. This wavelength was chosen because it falls within the absorption band of [2-F]^+ (see Supporting Information). The fluorescence image was reconstructed based on the emission intensity measured at λ=580±20 nm, a wavelength which is within the fluorescence band of [2-F]^+ (see Supporting Information).
# as §1
# To cross-evaluate the dual modality tracer ^18F-2-F, ex vivo fluorescence imaging was performed using a Lumina II small-animal imaging system (Xenogen, Alameda, Calif.). After the microPET imaging was done, the nude mouse was sacrificed. […] Fluorescent images were acquired and analyzed using Living Image 2.5 software (Xenogen). The fluorescence images were acquired using a 2-s exposure time (f-stop 4).
structure (smiles),measurement,setting,value
CC1=CC(C)=[N+]2C1=C(c1ccc([N+](C)(C)C)cc1)c1c(C)cc(C)n1[B-]2(F)c1ccccc1 (stereo not drawn) [[2-F]^+],stability in vivo,[1],stable in vivo
same,"uptake in heart, representative bones and muscles, ex vivo",[2],minimal uptake
same,"accumulation of the probe in organs, ex vivo microPET and fluorescence","[2]; excitation 500 nm, emission 580±20 nm",accumulation of the probe in the liver and kidneys
